# Laboratory results as given in patent US10238641B2, “Materials and methods for diagnosis, prevention and/or treatment of stress disorders and conditions associated with A-beta peptide aggregation” (The United States of America as represented by the …, priority 2008, dated 2019).
# Test system: nAChRs
# Assay type: cell-based, rat
structure (smiles),measurement,value
"CN1CCCC1c1cccnc1 (stereo not shown) [nicotine, reference compound]",reversal by α-Bgt of the beneficial actions against Aβ toxicity,able to reverse the beneficial actions of nicotine
